Measurements reported in patent US9927437B2, “Treating neurodegenerative disease” (THE BRIGHAM AND WOMEN'S HOSPITAL, INC., priority 2013, dated 2018).

Tested on: primary mouse microglia
Experiment: Response of primary microglia to LPS/IFNγ (nCounter)
Format: cell-based
Conditions: absence of astrocytes, LPS/IFNγ 6 h
Source text: FIGS. 5a-m. B4GALT6 in astrocytes regulates the activation of microglia and CNS-infiltrating monocytes. (a) Heatmap depicting mRNA expression, as determined by nCounter Nanostring analysis, in microglia from naïve or EAE NOD mice treated with PDMP or vehicle. Representative data of three independent experiments. Statistical analysis by Student's t-test. (b) qPCR analysis of ccl5, il1b, opn, nos2, cd40, and H2-Aa gene expression relative to Gapdh. (c, d) Mean normalized expression of genes associated with M1- or M2-phenotype in microglia (Table 3) (c) and Ly6C^high monocytes (d). Statistical analysis by Student's t-test. (e-h) primary microglia were pre-treated with PDMP, LacCer, or vehicle, followed by activation with LPS/IFNγ for 6 h or left un-treated (control) as in (FIG. 3a). mRNA expression was determined by nCounter Nanostring analysis (e, g), and microglial viability was determined (f, h). Representative data of five independent experiments. […] RNA was harvested from microglia treated in the absence [MG (pure)] or presence [MG (mixed)] of astrocytes and gene expression was analyzed by qPCR for the expression ccl2, ccl5 and nos2 relative to gapdh. […] Microglia were isolated as in (i), and microglial-nos2 expression was determined by qRT relative to gapdh and presented as in (i). […]

Row | Compound | response of cultured primary mouse microglia to LPS/IFNγ
1 | CCCCCCCCCC(=O)N[C@H](CN1CCOCC1)[C@H](O)c1ccccc1 [PDMP, D-threo-1-phenyl-2-decanoylamino-3-morpholino-1-propanol] | neither the viability nor the response of cultured primary mouse microglia to LPS/IFNγ was affected
2 | lactosylceramide [LacCer] | neither the viability nor the response of cultured primary mouse microglia to LPS/IFNγ was affected
